Data published in the NIST ThermoML archive (doi:10.1021/acs.jced.7b00650).
Numbers after ± are expanded uncertainties.

Details: Liquid; for viscosity: Capillary tube (Ostwald / Ubbelohde) method; for mass density: Vibrating tube method

## CCCCCCCCCCCC [dodecane]
293.21 K, 2007 kPa
  viscosity: 1.522 ± 0.017 mPa·s
  mass density: 750.58 ± 0.99 kg/m3
293.21 K, 3977 kPa
  viscosity: 1.56 ± 0.017 mPa·s
  mass density: 752.18 ± 1 kg/m3
293.21 K, 5979 kPa
  viscosity: 1.599 ± 0.017 mPa·s
  mass density: 753.71 ± 1 kg/m3
293.21 K, 7982 kPa
  viscosity: 1.639 ± 0.018 mPa·s
  mass density: 755.06 ± 1 kg/m3
293.21 K, 12987 kPa
  viscosity: 1.74 ± 0.019 mPa·s
  mass density: 758.27 ± 1 kg/m3
293.21 K, 29985 kPa
  viscosity: 2.106 ± 0.023 mPa·s
  mass density: 768.5 ± 1.1 kg/m3
293.22 K, 9987 kPa
  viscosity: 1.679 ± 0.018 mPa·s
  mass density: 756.38 ± 1 kg/m3
293.22 K, 15986 kPa
  viscosity: 1.801 ± 0.02 mPa·s
  mass density: 760.07 ± 1 kg/m3
293.22 K, 18994 kPa
  viscosity: 1.865 ± 0.02 mPa·s
  mass density: 761.82 ± 1 kg/m3
293.22 K, 21995 kPa
  viscosity: 1.929 ± 0.021 mPa·s
  mass density: 763.63 ± 1.1 kg/m3
293.22 K, 24987 kPa
  viscosity: 1.994 ± 0.022 mPa·s
  mass density: 765.5 ± 1.1 kg/m3
293.22 K, 27987 kPa
  viscosity: 2.061 ± 0.022 mPa·s
  mass density: 767.37 ± 1.1 kg/m3
313.1 K, 1990 kPa
  viscosity: 1.089 ± 0.012 mPa·s
  mass density: 736.16 ± 0.97 kg/m3
313.1 K, 4017 kPa
  viscosity: 1.116 ± 0.012 mPa·s
  mass density: 737.72 ± 0.98 kg/m3
313.1 K, 6016 kPa
  viscosity: 1.143 ± 0.013 mPa·s
  mass density: 739.14 ± 0.98 kg/m3
313.1 K, 8014 kPa
  viscosity: 1.171 ± 0.013 mPa·s
  mass density: 740.64 ± 0.99 kg/m3
313.1 K, 10011 kPa
  viscosity: 1.199 ± 0.013 mPa·s
  mass density: 742.11 ± 1 kg/m3
313.1 K, 13007 kPa
  viscosity: 1.241 ± 0.014 mPa·s
  mass density: 744.26 ± 1 kg/m3
313.1 K, 16011 kPa
  viscosity: 1.283 ± 0.014 mPa·s
  mass density: 746.36 ± 1 kg/m3
313.1 K, 19017 kPa
  viscosity: 1.326 ± 0.015 mPa·s
  mass density: 748.61 ± 1 kg/m3
313.1 K, 22017 kPa
  viscosity: 1.37 ± 0.015 mPa·s
  mass density: 750.69 ± 1 kg/m3
313.1 K, 25019 kPa
  viscosity: 1.414 ± 0.015 mPa·s
  mass density: 752.63 ± 1.1 kg/m3
313.1 K, 28017 kPa
  viscosity: 1.458 ± 0.016 mPa·s
  mass density: 754.52 ± 1.1 kg/m3
313.1 K, 30020 kPa
  viscosity: 1.489 ± 0.016 mPa·s
  mass density: 755.75 ± 1.1 kg/m3
333 K, 3976 kPa
  viscosity: 0.8436 ± 0.0094 mPa·s
  mass density: 723.61 ± 0.96 kg/m3
333.01 K, 2024 kPa
  viscosity: 0.823 ± 0.0091 mPa·s
  mass density: 721.82 ± 0.96 kg/m3
333.01 K, 5981 kPa
  viscosity: 0.8643 ± 0.0096 mPa·s
  mass density: 725.32 ± 0.97 kg/m3
333.01 K, 7987 kPa
  viscosity: 0.885 ± 0.0098 mPa·s
  mass density: 726.99 ± 0.97 kg/m3
333.01 K, 10019 kPa
  viscosity: 0.9059 ± 0.01 mPa·s
  mass density: 728.35 ± 0.98 kg/m3
333.01 K, 13016 kPa
  viscosity: 0.9374 ± 0.01 mPa·s
  mass density: 730.73 ± 0.99 kg/m3
333.01 K, 16014 kPa
  viscosity: 0.9691 ± 0.011 mPa·s
  mass density: 733.04 ± 1 kg/m3
333.01 K, 19018 kPa
  viscosity: 1.001 ± 0.011 mPa·s
  mass density: 735.29 ± 1 kg/m3
333.01 K, 22015 kPa
  viscosity: 1.033 ± 0.011 mPa·s
  mass density: 737.46 ± 1 kg/m3
333.01 K, 25018 kPa
  viscosity: 1.066 ± 0.012 mPa·s
  mass density: 739.58 ± 1 kg/m3
333.01 K, 28015 kPa
  viscosity: 1.099 ± 0.012 mPa·s
  mass density: 741.65 ± 1.1 kg/m3
333.01 K, 30024 kPa
  viscosity: 1.121 ± 0.012 mPa·s
  mass density: 742.99 ± 1.1 kg/m3
353.12 K, 2000 kPa
  viscosity: 0.6433 ± 0.0072 mPa·s
  mass density: 706.86 ± 0.94 kg/m3
353.12 K, 3991 kPa
  viscosity: 0.6598 ± 0.0074 mPa·s
  mass density: 708.83 ± 0.94 kg/m3
353.12 K, 5996 kPa
  viscosity: 0.6763 ± 0.0076 mPa·s
  mass density: 710.75 ± 0.95 kg/m3
353.12 K, 8009 kPa
  viscosity: 0.6929 ± 0.0078 mPa·s
  mass density: 712.81 ± 0.96 kg/m3
353.12 K, 10014 kPa
  viscosity: 0.7095 ± 0.0079 mPa·s
  mass density: 714.63 ± 0.97 kg/m3
353.12 K, 13006 kPa
  viscosity: 0.7344 ± 0.0082 mPa·s
  mass density: 717.28 ± 0.98 kg/m3
353.12 K, 16007 kPa
  viscosity: 0.7594 ± 0.0085 mPa·s
  mass density: 719.83 ± 0.99 kg/m3
353.12 K, 19003 kPa
  viscosity: 0.7845 ± 0.0087 mPa·s
  mass density: 722.16 ± 1 kg/m3
353.12 K, 22006 kPa
  viscosity: 0.8098 ± 0.009 mPa·s
  mass density: 724.55 ± 1 kg/m3
353.12 K, 25008 kPa
  viscosity: 0.8352 ± 0.0093 mPa·s
  mass density: 726.87 ± 1 kg/m3
353.12 K, 28011 kPa
  viscosity: 0.8607 ± 0.0095 mPa·s
  mass density: 729.13 ± 1 kg/m3
353.12 K, 30007 kPa
  viscosity: 0.8778 ± 0.0097 mPa·s
  mass density: 730.59 ± 1.1 kg/m3
